From BindingDB's records for doi:10.1124/jpet.105.097006 (Acadia Pharmaceuticals, 2006) come the findings set out here.

Usually IC50 stands for the concentration that gives 50% inhibition. The low end stands for greater potency in that assay, the high end for weaker potency in that assay. The term Ki denotes the dissociation constant of the complex between target and ligand, obtained from inhibition or displacement. High values mean lower affinity, low ones higher affinity.

For experiment [1], the target named is 5-hydroxytryptamine receptor 2B (Homo sapiens, UniProt P41595). The experiment can be described thus: Receptor Selection and Amplification Technology.
Chain of 5-hydroxytryptamine receptor 2B (P41595 whole entry): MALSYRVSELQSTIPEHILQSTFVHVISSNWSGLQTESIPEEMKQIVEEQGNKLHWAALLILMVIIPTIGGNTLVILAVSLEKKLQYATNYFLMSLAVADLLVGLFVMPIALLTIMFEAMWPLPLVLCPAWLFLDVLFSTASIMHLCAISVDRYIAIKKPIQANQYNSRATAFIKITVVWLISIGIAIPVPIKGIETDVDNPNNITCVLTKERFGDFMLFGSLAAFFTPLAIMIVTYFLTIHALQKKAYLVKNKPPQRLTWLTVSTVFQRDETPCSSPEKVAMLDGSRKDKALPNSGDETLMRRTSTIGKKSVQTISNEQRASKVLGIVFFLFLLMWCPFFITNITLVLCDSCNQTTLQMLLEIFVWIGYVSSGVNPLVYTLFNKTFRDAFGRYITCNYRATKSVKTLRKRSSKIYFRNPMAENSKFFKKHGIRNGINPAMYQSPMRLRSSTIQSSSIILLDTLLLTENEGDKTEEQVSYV
Experiment [2] addresses T1, 5-hydroxytryptamine receptor 2C (Homo sapiens, UniProt P28335).
T1 sequence (P28335 whole entry): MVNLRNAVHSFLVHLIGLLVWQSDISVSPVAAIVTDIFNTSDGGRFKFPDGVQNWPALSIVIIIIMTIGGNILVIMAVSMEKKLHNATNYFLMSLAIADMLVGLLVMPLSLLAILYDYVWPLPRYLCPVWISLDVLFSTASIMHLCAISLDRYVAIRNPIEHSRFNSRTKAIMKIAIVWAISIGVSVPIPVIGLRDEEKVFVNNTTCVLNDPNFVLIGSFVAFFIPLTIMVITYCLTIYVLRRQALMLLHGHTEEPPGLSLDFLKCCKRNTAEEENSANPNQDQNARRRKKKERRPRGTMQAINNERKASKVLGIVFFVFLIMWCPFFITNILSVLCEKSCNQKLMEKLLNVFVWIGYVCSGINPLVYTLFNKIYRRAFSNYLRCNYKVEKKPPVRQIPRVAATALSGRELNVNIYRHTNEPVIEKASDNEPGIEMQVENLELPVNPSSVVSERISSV
The experiment can be described thus: Receptor Selection and Amplification Technology.

Experiment [3] concerns the target T1, 5-hydroxytryptamine receptor 2C. The experiment in a line: Radioligand Binding Assay. The following applies: 4 °C. The protocol: (§1) For the membrane binding, NIH-3T3 cells were grown to 70% confluence in 15-cm2 dishes and transfected with 10 ug of receptor plasmid DNA using Polyfect transfection reagent (QIAGEN, Valencia, CA) according to manufacturer s protocols. Two days after transfection, cells expressing the desired serotonin receptor were homogenized in 20 mM HEPES/10 mM EDTA and spun down at 11,000g at 4 C for 30 min. The supernatant was discarded, and the pellet was resuspended in 20 mM HEPES/1 mM EDTA and spun down at the same setting. The pellet was then resuspended in 20 mM HEPES/0.5 mM EDTA, and membranes were used for binding assays. Bradford analysis was used to determine total membrane protein.

Experiment [4] concerns the target T2, 5-hydroxytryptamine receptor 2A (Homo sapiens, UniProt P28223). The experiment can be described thus: Receptor Selection and Amplification Technology.
For experiment [5], the target named is T2, 5-hydroxytryptamine receptor 2A. The experiment can be described thus: Radioligand Binding Assay. To be noted: 4 °C. The procedure: as §1

T2 sequence (P28223 whole entry): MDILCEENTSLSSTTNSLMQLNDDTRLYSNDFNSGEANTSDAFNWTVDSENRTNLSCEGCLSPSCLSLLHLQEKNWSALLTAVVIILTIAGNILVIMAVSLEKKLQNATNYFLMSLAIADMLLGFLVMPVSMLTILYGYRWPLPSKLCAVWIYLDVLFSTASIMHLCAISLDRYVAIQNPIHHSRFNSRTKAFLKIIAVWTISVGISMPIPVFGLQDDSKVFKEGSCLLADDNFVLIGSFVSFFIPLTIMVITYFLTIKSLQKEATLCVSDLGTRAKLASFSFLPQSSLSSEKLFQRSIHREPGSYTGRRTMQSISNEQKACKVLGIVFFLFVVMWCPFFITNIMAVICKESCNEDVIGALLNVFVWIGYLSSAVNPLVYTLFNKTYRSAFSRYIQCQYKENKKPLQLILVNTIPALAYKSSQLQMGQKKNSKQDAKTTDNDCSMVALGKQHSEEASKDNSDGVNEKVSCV

For the molecule `Cc1nc2sccn2c(=O)c1CCN1CCC(=C(c2ccc(F)cc2)c2ccc(F)cc2)CC1`, the values for the IC50 in experiment [1] and in experiment [2] were 3 nM and 4.5 nM, respectively. In experiment [3], the Ki stood at 0.44 nM.

In the case of `CN(C)CCON/C(=C/C=C1C=CC(=O)C=C1)c1ccccc1F` [eplivanserin], in experiment [4], 1 nM corresponded to half-maximal inhibition (IC50). The Ki came to 0.046 nM in experiment [5] and 1.3 nM in experiment [3].
